From patent US20250179028A1, “ACRYLAMIDE COMPOUNDS” (NRG THERAPEUTICS LTD, priority 2022, published 2025)
In brackets after ≈: the same amount, converted by molar mass. Where two headings read alike, the source gives them in different places.

Assays:
mPTP [1] = test: mPTP activity assay in isolated rat brain mitochondria; format: biochemical; conditions: isolated rat brain mitochondria
Protocol: mPTP activity was measured in brain mitochondria freshly isolated from female Sprague Dawley (250 to 300 gram) rats. Anaesthetised rats were perfused in-situ with ˜40 ml cold Dulbecco's Phosphate Buffered Saline (DPBS), then brains dissected and transferred into 30 ml Isolation Buffer (225 mM mannitol, 75 mM sucrose, 1 mM EGTA, adjusted to pH 7.4 with 1 M NaOH). The brain was minced using tweezers and a scalpel into ˜5 mm pieces then transferred into a 50 ml Potterton Dounce homogenization tube on ice containing 10 ml ice-cold isolation buffer (as above with addition of Complete Protease inhibitor; 1 tablet per 50 ml buffer).
Homogenisation was carried out using a […] pestle at 1800 rpm. The slurry was centrifuged at 2000 g for 10 min at 4° C., then the supernatant centrifuged at 12,000 g for 9 min. The pellet was resuspended with a dounce homogeniser in isolation buffer as above but with the addition of 0.02% digitonin, centrifuged at 12,000 g for 11 min and finally resuspended in 5 ml modified isolation buffer (as above but with EGTA reduced to 0.1 mM).
Test compounds were prepared in 384 well polypropylene assay plates as described above for the liver mitochondria assay. A stock mitochondria/Fluo5N assay solution was prepared in 5.6 ml assay buffer (120 mM mannitol, 40 mM MOPS, 5 mM KH2PO4, 60 mM KCl, 10 mM pyruvate, 2 mM malate, 2 mM MgCl2, 20 μM ADP, 1.26 μM oligomycin A, adjusted to pH 7.4) supplemented with Fluo5N pentapotassium salt (2 μM) and 1 ml mitochondria suspension, then transferred (15 μl) into the assay plate containing test compounds and incubated for 10 min at RT. Assay plates were then transferred to a FLIPR Tetra plate reader (Molecular Devices). Dye fluorescence was then measured every 3 sec for a total of 10 min. After 12 sec, a 2.5 μl bolus of Ca2+ (75 μM) was added from a source plate containing 675 μM CaCl2) in FLIPR assay buffer. IC50 values for test compounds were calculated using the fluorescence value collected at the 10 min timepoint with % inhibition calculated using the DMSO control and cyclosporin A values at […].

[2] = PBS and FaSSIF solubility; format: physicochemical; conditions: kinetic from dmso stock
Protocol: Test compounds were prepared as 10 mM stocks in DMSO and 15 μl samples transferred in duplicate into 1.5 mL glass flat bottom vials (BioTech Solutions). Fasted state simulated intestinal fluid (FaSSIF) or PBS (pH 7.4) was added to each vial to final volume of 500 μl. One PTFE encapsulated stir stick (V&P Scientific) was placed in each vial before sealing with PTFE/SIL plugs (BioTech Solutions). Vials were shaken at 1100 rpm for 2 hr at 25° C. Samples were then filtered through MultiScreen Solvinert filter plates (Millipore) via vacuum filtration. Aliquots of filtrate (5 μl) plus 5 μl DMSO were diluted in 490 μl 50% acetonitrile in water containing internal standard. The filtrate was analysed and quantified against a standard of known concentration using LC-MS/MS. Solubility values of the test compound and control compound were calculated as follows: […]

mPTP [3] = test: mPTP activity (Ca2+ retention) assay in isolated rat liver mitochondria; format: biochemical; conditions: for mPTP Rat liver pIC50: isolated rat liver mitochondria, average value from multiple experiments (n ≥ 2)
Summary of the method: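 Freshly isolated female Sprague Dawley rat liver mitochondria were energised with succinate and rotenone in pH 7.4 buffer with Fluo5N, then pre-incubated 10 min at RT with compound (30 μM to 1 nM final) before a 75 μM CaCl2 bolus. The IC50 used 10-min fluorescence, normalised to DMSO and 5 μM cyclosporin A.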

[4] = Hepatocyte clearance assay, human; format: in vitro ADME; conditions: cryopreserved primary human hepatocytes, average value from two experiments, read-out: Human heps Clint
Protocol: (§1) In vitro clearance studies were performed in primary rat and human hepatocytes (BiolVT). Vials of cryopreserved rat or human hepatocytes were thawed in a 37° C. water bath for 2 min. Cells were transferred into thawing medium (Williams' Medium E containing 30% Percoll, 1×GlutaMAX-1, 15 mM HEPES, 5% fetal bovine serum (FBS), 4 μg/ml insulin, 1 μM dexamethasone), centrifuged at 100 g for 10 min then resuspended in culture medium (Leibovitz's L-15 Medium) at a concentration of 0.5×10^6 viable cells/mL (number of viable cells assessed using AO/PI staining). Hepatocytes (198 μL) were transferred into wells of a 96-well non-coated plate and placed in a 37° C. incubator for 10 min. Test compound solutions were prepared from 10 mM stocks in DMSO, diluted to 100 μM in 50% (v/v in water) acetonitrile. Test compound samples (2 μl) were added to each well of hepatocytes and incubated at 37° C. Samples (25 μl) were collected at t=0, 15, 30, […] and 120 min, mixed with 6 volumes (150 μl) of acetonitrile containing internal standard (100 nM alprazolam, 200 nM caffeine and 100 nM tolbutamide), vortexed for 5 min and centrifuged for 45 min at 3220 g. An aliquot of supernatant (100 μL) was diluted with 100 μL ultra-pure water, and the mixture was used for LC/MS/MS analysis. All incubations were performed in duplicate. Peak areas were determined from extracted ion chromatograms. The slope value, k, was determined by linear regression of the natural logarithm of the remaining percentage of the parent drug vs. incubation time curve. The in vitro half-life (in vitro t½) was determined from the slope value: in vitro t½=0.693/k. Conversion of the in vitro t½ (in min) into the in vitro intrinsic clearance (in vitro CLint, in μL/min/1×10^6 cells) was done using the following equation (mean of duplicate determinations):
(§2) [formula] • V=incubation volume (0.2 mL) • N=number of hepatocytes per well (0.1×10^6 cells).

CYP2D6 = CYP2D6 (Homo sapiens (Human), UniProt P10635); test: Cytochrome P450 CYP2D6 inhibition in human liver microsomes; format: in vitro ADME; conditions: probe dextromethorphan 2 µM (dextrorphan formation); 1 uM test compound, human liver microsomes; average value from two experiments; negative values = no effective inhibition
Protocol: Studies to assess tested compound mediated inhibition of cytochrome P450 enzyme isoform CYP2D6 were performed using human liver microsomes (BD Gentest) using either a single concentration (1 μM) of test compound or concentration response (0.1, 0.3, 1, 3, 10 and 30 μM) to derive an IC50. Tested compound solutions were prepared from 10 mM stocks in DMSO and diluted to 200 μM in DMSO. Reactions were prepared in a 96 deep well plate by combining 1 μl test compound with 179 μl reaction mixture (100 mM phosphate buffered saline (PBS), 0.2 mg/mL microsomes and 2 μM Dextromethorphan prepared from stocks as detailed below).
The positive control inhibitor, quinidine, was used at a final concentration of 0.5 μM when used at a single concentration. The final concentrations of quinidine used to derive an IC50 were 0, 0.1, 0.3, 1, 3, 10 and 30 μM. Plates were warmed at 37° C. for 15 min before starting reactions with 20 μl 10 mM NADPH solution in PBS and incubated for 20 min at 37° C. The assay is performed in duplicate. Reactions were quenched with 200 μl cold acetonitrile containing internal standards (200 nM labetalol, 200 nM alprazolam and 100 nM tolbutamide). The plate was centrifuged at 4000 rpm for 30 minutes, placed on ice for 20 minutes and then centrifuged at 4000 rpm for 30 minutes again to precipitate protein. 100 μL of the supernatant was transferred to a new plate and diluted with 100 μL pure water before being analysed using UPLC/MS/MS. The products of the transformation for dextromethorphan to dextrorphan was monitored by UPLC-MS/MS. The inhibition of CYP2D6 in human liver microsomes was measured as the percentage decrease in the activity of dextrorphan formation compared to non-inhibited controls (=100% activity). The IC50 value was calculated (test compound concentration which produces 50% inhibition) by using Excel Xlfit.

[5] = Hepatocyte clearance assay, rat; format: in vitro ADME; conditions: cryopreserved primary rat hepatocytes, average value from two experiments, read-out: Rat heps Clint
Protocol: as §1, §2

[6] = fasted state simulated intestinal fluid (FaSSIF), fassif, Fasted state simulated intestinal fluid, 2 hr at 25° C., read-out: Solubility FaSSIF

Sequence of CYP2D6 (P10635 whole entry, canonical isoform): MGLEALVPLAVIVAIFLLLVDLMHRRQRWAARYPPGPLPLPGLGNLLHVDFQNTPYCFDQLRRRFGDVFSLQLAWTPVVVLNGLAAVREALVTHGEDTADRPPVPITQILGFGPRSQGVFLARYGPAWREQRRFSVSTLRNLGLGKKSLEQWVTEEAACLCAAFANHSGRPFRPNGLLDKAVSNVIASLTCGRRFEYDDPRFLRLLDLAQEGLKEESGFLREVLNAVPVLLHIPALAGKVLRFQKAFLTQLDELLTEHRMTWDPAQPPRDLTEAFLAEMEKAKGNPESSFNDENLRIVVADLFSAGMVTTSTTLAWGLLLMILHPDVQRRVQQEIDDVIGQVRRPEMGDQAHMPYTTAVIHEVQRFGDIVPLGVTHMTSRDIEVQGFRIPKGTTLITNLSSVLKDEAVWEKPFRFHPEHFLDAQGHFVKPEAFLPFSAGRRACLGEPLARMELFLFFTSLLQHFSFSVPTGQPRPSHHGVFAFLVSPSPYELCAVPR

In the case of `COc1cc(C)c(NC(=O)/C=C/c2ccc3c(C#N)n[nH]c3c2)c(C)n1` [Example 94, (2E)-3-(3-cyano-1H-indazol-6-yl)-N-(6-methoxy-2,4-dimethylpyridin-3-yl)prop-2-enamide], the “mPTP Rat brain pIC50” value (mPTP [1]) is reported as 7.4, the solubility at 2 h [2, 6] is reported as 43 µM (≈ 14.9 µg/mL) and the “mPTP Rat liver pIC50” value (mPTP [3]) is reported as 7.5.

For `Cc1ncc(F)c(C)c1NC(=O)/C=C/c1cc2[nH]nc(F)c2cc1F` [Example 111, (2E)-3-(3,5-difluoro-1H-indazol-6-yl)-N-(5-fluoro-2,4-dimethylpyridin-3-yl)prop-2-enamide], the “mPTP Rat brain pIC50” value (mPTP [1]) was 8.1 and the “mPTP Rat liver pIC50” value (mPTP [3]) was 8.1.

With `COc1cc(C)c(NC(=O)/C=C/c2ccc3c(C)n[nH]c3c2)c(C)n1` [Example 91, (2E)-N-(6-methoxy-2,4-dimethylpyridin-3-yl)-3-(3-methyl-1H-indazol-6-yl)prop-2-enamide] the “mPTP Rat brain pIC50” value (mPTP [1]) was 7.2, the solubility at 2 h [2, 6] was 86 µM (≈ 28.9 µg/mL) and the “mPTP Rat liver pIC50” value (mPTP [3]) was 6.2.

In the case of `Cc1n[nH]c2cc(/C=C/C(=O)N[C@H]3c4ccccc4OC[C@@H]3C)ccc12` [Example 65c, (E)-3-(3-methyl-1H-indazol-6-yl)-N-((3R,4R)-3-methylchroman-4-yl)acrylamide], the “mPTP Rat brain pIC50” value (mPTP [1]) is reported as 7.8 and the “mPTP Rat liver pIC50” value (mPTP [3]) is reported as 7.7.

In the case of `COc1cc(C)c(NC(=O)/C=C/c2ccc3c(F)n[nH]c3c2)c(C)n1` [Example 93, (2E)-3-(3-fluoro-1H-indazol-6-yl)-N-(6-methoxy-2,4-dimethylpyridin-3-yl) prop-2-enamide], the “mPTP Rat brain pIC50” value (mPTP [1]) is reported as 6.8, the solubility at 2 h [2, 6] is reported as 151 µM (≈ 51.4 µg/mL) and the “mPTP Rat liver pIC50” value (mPTP [3]) is reported as 7.6.

For `Cc1ncc(F)c(C)c1NC(=O)/C=C/c1ccc2c(Cl)n[nH]c2c1` [Example 112, (2E)-3-(3-chloro-1H-indazol-6-yl)-N-(5-fluoro-2,4-dimethylpyridin-3-yl)prop-2-enamide], the “mPTP Rat brain pIC50” value (mPTP [1]) was 8.2 and the “mPTP Rat liver pIC50” value (mPTP [3]) was 8.2.

`Cc1cc(F)c(F)c(C)c1NC(=O)/C=C/c1ccc2c(c1)NC(=O)C2` [Example 36, (E)-N-(3,4-difluoro-2,6-dimethylphenyl)-3-(2-oxoindolin-6-yl)acrylamide] gave a hepatocyte CLint at 1 µM [4] of 7.26 µL/min/1e6 cells, an inhibition at 20 min, 1 µM (CYP2D6) of -2.57% and a hepatocyte CLint at 1 µM [5] of 9.41 µL/min/1e6 cells. The solubility at 2 h ([2]; aqueous buffer, PBS pH 7.4, 2 hr at 25° C., read-out: Solubility PBS (pH 7.4)) was 65.9 µM (≈ 22.6 µg/mL) and the “mPTP Rat liver pIC50” value (mPTP [3]) was 7.2.

With `Cc1ncc(F)c(C)c1NC(=O)/C=C/c1cc2[nH]nc(C)c2cc1F` [Example 107, (2E)-N-(5-fluoro-2,4-dimethylpyridin-3-yl)-3-(5-fluoro-3-methyl-1H-indazol-6-yl)prop-2-enamide] the “mPTP Rat brain pIC50” value (mPTP [1]) was 8.0 and the “mPTP Rat liver pIC50” value (mPTP [3]) was 8.1.

`Cc1c(F)cccc1NC(=O)/C=C/c1ccc2c(C)n[nH]c2c1` [Example 37, (E)-N-(3-fluoro-2-methylphenyl)-3-(3-methyl-1H-indazol-6-yl)acrylamide] showed a hepatocyte CLint at 1 µM [4] of 18.9 µL/min/1e6 cells, an inhibition at 20 min, 1 µM (CYP2D6) of 5.04% and a hepatocyte CLint at 1 µM [5] of 87.6 µL/min/1e6 cells. The solubility at 2 h [2, 6] was 2.95 µM (≈ 0.913 µg/mL), the “activity in the rat liver mitochondria assay (in words)” value (mPTP [3]) was “highest activity” and the “mPTP Rat liver pIC50” value (mPTP [3]) was 8.1.

With `Cc1ncccc1NC(=O)/C=C/c1ccc2c(C)n[nH]c2c1` [Example 115, (2E)-3-(3-methyl-1H-indazol-6-yl)-N-(2-methylpyridin-3-yl)prop-2-enamide] the “mPTP Rat brain pIC50” value (mPTP [1]) was 5.7 and the “mPTP Rat liver pIC50” value (mPTP [3]) was 6.2.

In the case of `Cc1ccnc(C)c1NC(=O)/C=C/c1ccc2c(C)n[nH]c2c1` [Example 116, (2E)-N-(2,4-dimethylpyridin-3-yl)-3-(3-methyl-1H-indazol-6-yl)prop-2-enamide], the “mPTP Rat brain pIC50” value (mPTP [1]) is reported as 6.2 and the “mPTP Rat liver pIC50” value (mPTP [3]) is reported as 6.5.

Work on `CO[C@H]1Cc2ccccc2[C@@H]1NC(=O)/C=C/c1ccc2c(C3CC3)n[nH]c2c1` [Example 70, (E)-3-(3-cyclopropyl-1H-indazol-6-yl)-N-((1S,2S)-2-methoxy-2,3-dihydro-1H-inden-1-yl)acrylamide] yielded a hepatocyte CLint at 1 µM [4] of 24.6 µL/min/1e6 cells, an inhibition at 20 min, 1 µM (CYP2D6) of 7.5% and a hepatocyte CLint at 1 µM [5] of 70.1 µL/min/1e6 cells. For the same compound, the solubility at 2 h [2, 6] was 18.4 µM (≈ 6.87 µg/mL) and the “mPTP Rat liver pIC50” value (mPTP [3]) was 7.5.

Compound `COc1n[nH]c2cc(/C=C/C(=O)N[C@H]3c4ccccc4C[C@@H]3OC)ccc12` [Example 71, (E)-3-(3-methoxy-1H-indazol-6-yl)-N-((1S,2S)-2-methoxy-2,3-dihydro-1H inden-1-yl)acrylamide] has a hepatocyte CLint at 1 µM [4] of 8.9 µL/min/1e6 cells, an inhibition at 20 min, 1 µM (CYP2D6) of 7.4% and a hepatocyte CLint at 1 µM [5] of 72 µL/min/1e6 cells. The solubility at 2 h [2, 6] was 19.9 µM (≈ 7.25 µg/mL) and the “mPTP Rat liver pIC50” value (mPTP [3]) was 7.0.

With `Cc1ncc(F)c(C)c1NC(=O)/C=C/c1ccc2c(F)n[nH]c2c1` [Example 108, (2E)-3-(3-fluoro-1H-indazol-6-yl)-N-(5-fluoro-2,4-dimethylpyridin-3-yl)prop-2-enamide] the “mPTP Rat brain pIC50” value (mPTP [1]) was 7.6 and the “mPTP Rat liver pIC50” value (mPTP [3]) was 7.8.
